Measured values from ChEMBL document CHEMBL1149578, “Design, synthesis, and discovery of stilbene derivatives based on lithospermic acid B as potent protein tyrosine phosphatase 1B inhibitors” (Bioorg Med Chem Lett, 2007).
Activity calls are given as the source filed them. The calls are words filed in the database; no cut-off is given here.

How the values were obtained:
[1] = molecular target: T1, Tyrosine-protein phosphatase non-receptor type 1 (Homo sapiens, UniProt P18031); assay: (§1) Inhibition of PTP1B by colorimetric assay
T1 sequence (P18031 whole entry): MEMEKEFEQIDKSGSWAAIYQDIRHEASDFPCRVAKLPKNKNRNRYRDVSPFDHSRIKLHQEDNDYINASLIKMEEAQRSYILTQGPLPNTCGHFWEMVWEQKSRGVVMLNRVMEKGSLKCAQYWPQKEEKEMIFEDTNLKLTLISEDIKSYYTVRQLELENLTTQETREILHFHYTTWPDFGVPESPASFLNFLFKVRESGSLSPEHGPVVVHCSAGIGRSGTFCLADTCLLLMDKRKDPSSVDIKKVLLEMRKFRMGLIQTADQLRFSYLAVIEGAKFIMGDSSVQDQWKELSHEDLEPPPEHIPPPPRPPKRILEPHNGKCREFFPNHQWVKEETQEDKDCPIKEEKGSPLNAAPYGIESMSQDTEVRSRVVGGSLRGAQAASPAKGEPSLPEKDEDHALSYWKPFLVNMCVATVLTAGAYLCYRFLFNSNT

[2] = molecular target: T2, Tyrosine-protein phosphatase non-receptor type 1 (Homo sapiens) (UniProt P18031); assay: as §1
T2 sequence (whole entry): T1 sequence (P18031 whole entry)

| Compound | IC50 [1] | Activity [2] |
| --- | --- | --- |
| O=[N+]([O-])c1ccc(/C=C/c2ccc(O)c(O)c2)c([N+](=O)[O-])c1 | 190 µM |  |
| O=[N+]([O-])c1ccc(/C=C/c2cccc(O)c2)c([N+](=O)[O-])c1 |  | inactive |
| O=[N+]([O-])c1ccc(/C=C/c2cccc(O)c2O)c([N+](=O)[O-])c1 | 168 µM |  |
| C(=C/c1ccccc1)/c1ccccc1 |  | inactive |
| COc1cc(/C=C/C(=O)CC(=O)/C=C/c2ccc(O)c(OC)c2)ccc1O |  | inactive |
| O=C(O)/C=C/c1ccc(O)c(O)c1 |  | inactive |
| COC(=O)/C=C/c1ccc(/C=C/c2ccc(OC)c(OC)c2)cc1 |  | inactive |
| CCN(CC)C(=O)/C=C/c1ccc(O)c(O)c1 |  | inactive |
| COc1ccc(/C=C/c2ccc(O)cc2)cc1OC |  | inactive |
| CCCCCCCCCCCCCCCC(=O)C1=C(O)[C@@H](CO)OC1=O | 45 µM |  |

Next, values leading:

| IC50 [1] | Activity [2] | Compound |
| --- | --- | --- |
| 25.6 µM |  | COC(=O)c1ccc(/C=C/c2ccc(O)c(O)c2)cc1 |
|  | inactive | COC(=O)c1ccc(/C=C/c2ccc(OC)c(OC)c2)cc1 |
| 27.2 µM |  | O=C(Nc1ccccc1)c1ccc(/C=C/c2ccc(O)c(O)c2)cc1 |
|  | inactive | O=C(/C=C/c1ccc(O)c(O)c1)Nc1ccccc1 |
| 14.9 µM |  | COC(=O)/C=C/c1ccc(/C=C/c2ccc(O)c(O)c2)cc1 |
| 260 µM |  | OCc1ccc(/C=C/c2ccc(O)c(O)c2)cc1 |
|  | inactive | COC(=O)C=Cc1ccc(/C=C\c2ccc(O)c(O)c2)cc1 |
|  | inactive | O=C(NCC1CCCO1)c1ccc(/C=C\c2ccc(O)c(O)c2)cc1 (stereo unspecified) |
| 35.4 µM |  | O=C(NCC1CCCO1)c1ccc(/C=C/c2ccc(O)c(O)c2)cc1 (stereo unspecified) |
| 101 µM |  | O=Cc1ccc(/C=C/c2ccc(O)c(O)c2)cc1 |
| 138 µM |  | OCc1ccc(/C=C\c2ccc(O)c(O)c2)cc1 |
